Reference: US11154515B2, “Pharmaceutical compositions comprising cannabidiol and beta-caryophyllene and methods for their use” (priority 2017, dated 2021)
Several values for one entry are separate records, joined by “and”; a condition that tells them apart may be missing. Equal entries are not always repeated. Where two headings read alike, the source gives them in different places.

Legend:
[1] = tested on: NF-κB and AP-1 inducible SEAP reporter in RAW-Blue™ cells; experiment: RAW-Blue™ cells Quanti-Blue™ SEAP reporter assay, LPS-stimulated (high-throughput inflammatory assay); type: cell-based, murine
Description: RAW 264.7 macrophages are commonly used to study the functional characteristics of the endocannabinoid system (ECS). Specifically, this model is widely employed to assess the anti-inflammatory functions of the ECS (Carrier, et al. 2006, “Inhibition of an equilibrative nucleoside transporter by cannabidiol: A mechanism of cannabinoid immunosuppression,” PNAS, 103(20), 7895-7900). RAW-Blue™ cells are derived from RAW 264.7 macrophages and are genetically modified to comprise a secreted embryonic alkaline phosphatase (SEAP) reporter construct that is inducible by NF-κB and AP-1. These RAW-Blue™ cells express a variety of pattern recognition receptors, including Toll like receptor 4 (TLR4). The activation of these pattern recognition receptors on the RAW-Blue™ cells (e.g., by lipopolysaccharide (LPS) in the case of TLR4) induces signaling through NF-κB and/or AP-1, thereby leading to increased secretion of the SEAP reporter gene. Therefore, the RAW-Blue™ macrophages and provide a robust, high-throughput model of inflammatory processes.
RAW-Blue™ cells were cultured in high-glucose containing Dulbecco's Modified Eagle Medium (Merck) supplemented with 10 (V/V) % fetal bovine serum (FBS; ThermoFisher), 2-4 mM L-glutamine, 50 U/mL penicillin, 50 μg/mL streptomycin as well as with antibiotics for selection: 100 μg/mL Normocin™ (InvivoGen) and Zeocin™ (InvivoGen). Cells were cultured at 37° C. in humidified, 5% CO2 containing atmosphere. The medium was changed every other day, and cells were sub-cultured at 70-80% confluence.
For each of these phases, 100,000 RAW-Blue™ cells/well were seeded in a 96-well plate in triplicate and cultured for 24 hours to allow attachment of the macrophages to the cell culture plate. After 24 hrs cells were pre-treated with selected concentrations of CBD, BCP, or CBD+BCP. Two hours after drug pre-treatment, cells were stimulated with 0.1 μg/mL LPS (Sigma-Aldrich) to induce activation of the TLR4 pathway. After 24 hours of LPS stimulation, 150 μL Quanti-Blue™ Medium was aliquoted per well in a 96-well plate and 50 μL of the experimental supernatants were added per well. Cell culture medium was used as negative control. After 1 hour incubation, SEAP levels were detected by measuring absorbance levels at λ=650 nm at 37° C. Results are expressed as a % decrease in SEAP levels in drug-treated, LPS-stimulated groups compared to the SEAP level of the untreated, LPS-stimulated group (regarded as 100%). All experiments were repeated 2-3 times.

IL-1α gene expression = IL-1α gene expression (RT-qPCR) in LPS-stimulated RAW 264.7 macrophages; type: cell-based, murine; settings: for reduction of LPS-induced expression of IL-1α vs untreated, LPS-stimulated controls (FIG. 3A): CBD 0.1 μM, BCP 0.013 μM (p<0.001), combination 0.1 μM + 0.013 μM (7.7:1, p<0.001); for % decrease in IL1α expression: Table 3A experiment; for % Inhibition Alone, IL-1α gene expression: Table 3B/6 experiment
Procedure: RAW 264.7 cells were cultured in Dulbecco's Modified Eagle's Medium (high glucose DMEM, Sigma-Aldrich) supplemented with 10% fetal bovine serum (FBS), 1% L-glutamine, 1% Sodium-pyruvate, 1% Penicillin-Streptomycin (culture medium). The cells were maintained in T75 flasks at 37° C. in humidified air containing 5% CO2 in an incubator and passaged every second-third day.
For drug treatment and LPS stimulation, 200,000 cells/well were seeded in 1.5 mL culture medium in a 6-well plate and incubated to allow attachment to the cell culture plate. After attachment, cells were incubated with various concentrations of CBD (0.1 μM, 0.3 μM, 1 μM, 3 μM, 5 μM, 10 μM, and 30 μM) or BCP (0.001 μM, 0.01 μM, 0.013 μM, 0.1 μM, 0.3 μM, 1 μM, 3 μM, 5 μM, 10 μM, and 100 μM), or vehicle (control) for 2 hrs. After the 2 h incubation, 0.1 μg/mL LPS was added to each well to induce inflammation and cells were incubated with LPS for 24 hrs.
After the 24 h incubation with LPS, the cells were harvested and gene expression of the pro-inflammatory cytokines interleukin (IL)-1α, IL-1β were measured by quantitative real-time polymerase chain reaction (RT-qPCR) on a Roche Light Cycler 480 QPCR System (Roche Applied Sciences) using the 5′ nuclease assay. Total RNA was isolated using TRIzol (LifeTechnologies), DNase treatment was performed according to the manufacturer's protocol, and then 1 μg of total RNA was reverse-transcribed into cDNA using High Capacity cDNA Kit from Life Technologies Corporation. PCR amplification was performed using the TaqMan primers and probes (assay IDs: Mm00439620_m1 for murine Il1a; Mm00434228_m1 for murine Il1b, Mm00446190_m1 for murine 116, Mm00441263_m1 for murine Cxcl15/Il8). Expression of the housekeeping gene, Gapdh, was used (assay ID: […]) as an internal control. The amount of the transcripts was normalized to those of the housekeeping gene using the ΔCT method. Results are expressed as % decrease in the expression levels of IL1α and IL1β in drug-treated, LPS-stimulated groups compared to the expression of each cytokine gene in the vehicle-treated, LPS-stimulated group (regarded as 100%). All experiments were repeated 2-3 times.
For statistical analysis, data were analyzed and graphs were plotted using Origin Pro Plus 6.0 software (Microcal, Northampton, Mass., USA) and Student's two-tailed two samples t-test. p<0.05 values were regarded as significant differences.

RAW-Blue™ cells = experiment: MTT cell viability assay, RAW-Blue™ cells; settings: CBD 30 μM; BCP 300 μM
[2] = Mus musculus, RAW-Blue, read-out: % Inhibition Alone
[3] = Table 4 Exp. 1: CBD 0.1 μM, BCP 0.013 μM, CBD + BCP 0.1 μM + 0.013 μM
[4] = Table 4 Exp. 2: CBD 1 μM, BCP 0.13 μM, CBD + BCP 1 μM + 0.13 μM

Molecule `C=C1CC/C=C(\C)CC[C@H]2[C@H]1CC2(C)C` [BCP, (E)-beta-caryophyllene] has an inhibition at 0.0001 µM [1, 2] of 0%, an inhibition at 0.001 µM [1, 2] of 1 ± 0.8% and an inhibition at 0.01 µM [1, 2] of 3.8 ± 1.9%. It also gave an inhibition at 0.013 µM [1, 2] of 9.2%, an inhibition at 0.1 µM [1, 2] of 8 ± 6.4% and an inhibition at 0.13 µM [1, 2] of 0%. For the same molecule, the inhibition at 0.3 µM [1, 2] was 1.6 ± 1.4%, the inhibition at 1 µM [1, 2] was 2.5 ± 2% and the inhibition at 3 µM [1, 2] was 1.25 ± 1%. It also gave an inhibition at 10 µM [1, 2] of 28.6 ± 14.3%, an inhibition at 30 µM [1, 2] of 0% and an inhibition at 100 µM [1, 2] of 11.7 ± 5.8%. For the same molecule, the inhibition at 300 µM [1, 2] was 92.2 ± 17.1%, the “anti-inflammatory actions when applied alone” value ([1]; SEAP levels) was “only minor (if any) anti-inflammatory actions” and the “% Inhibition Alone” value ([1]; single agent 300 μM, * possibly cytotoxicity) was “*92.2 ± 17.1%”. The “reduction of LPS-induced expression of IL-1α vs untreated, LPS-stimulated controls (FIG. 3A)” value (IL-1α gene expression) was “did significantly reduce”, the “anti-inflammatory actions when applied alone” value (IL-1α gene expression; IL-1α and IL-1β gene expression) was “only minor (if any) anti-inflammatory actions” and the “% decrease in IL1α expression” value (IL-1α gene expression; single agent 0.1 μM) was 2%. The “% decrease in IL1α expression” value (IL-1α gene expression; single agent 1 μM) was 18%, the “% decrease in IL1α expression” value (IL-1α gene expression; single agent 5 μM) was 26% and the “% decrease in IL1α expression” value (IL-1α gene expression; single agent 10 μM) was 0%. For the same molecule, the “% Inhibition Alone, IL-1α gene expression” value (IL-1α gene expression; single agent 0.001 μM) was 0%, the “% Inhibition Alone, IL-1α gene expression” value (IL-1α gene expression; single agent 0.01 μM) was 0% and the “% Inhibition Alone, IL-1α gene expression” value (IL-1α gene expression; single agent 0.1 μM) was 1.8 ± 0.2%. The “% Inhibition Alone, IL-1α gene expression” value (IL-1α gene expression; single agent 0.3 μM) was 5.8 ± 1.2%, the “% Inhibition Alone, IL-1α gene expression” value (IL-1α gene expression; single agent 1 μM) was 0% and the “% Inhibition Alone, IL-1α gene expression” value (IL-1α gene expression; single agent 3 μM) was 0%. For the same molecule, the “% Inhibition Alone, IL-1α gene expression” value (IL-1α gene expression; single agent 10 μM) was 8.2 ± 4.1%, the “% decrease in IL-1α gene expression” value (IL-1α gene expression; [3]) was 32% and the “% decrease in IL-1α gene expression” value (IL-1α gene expression; [4]) was 0%.
Molecule `C=C(C)[C@@H]1CCC(C)=C[C@H]1c1c(O)cc(CCCCC)cc1O` [CBD, cannabidiol] has an inhibition at 10 pM ([1]; Mus musculus, RAW-Blue, single agent 0.00001 μM, read-out: % Inhibition Alone) of 1.9 ± 0.9%, an inhibition at 0.0001 µM ([1]; Mus musculus, RAW-Blue, single agent 0.0001 μM, read-out: % Inhibition Alone) of 2.4 ± 2% and an inhibition at 0.001 µM ([1]; Mus musculus, RAW-Blue, single agent 0.001 μM, read-out: % Inhibition Alone) of 3.1 ± 3.1%. For the same molecule, the inhibition at 0.01 µM ([1]; Mus musculus, RAW-Blue, single agent 0.01 μM, read-out: % Inhibition Alone) was 5.8 ± 2.9%, the inhibition at 0.1 µM ([1]; Mus musculus, RAW-Blue, single agent 0.1 μM, read-out: % Inhibition Alone) was 8.5% and the inhibition at 0.3 µM ([1]; Mus musculus, RAW-Blue, single agent 0.3 μM, read-out: % Inhibition Alone) was 10 ± 0.8%. It also gave an inhibition at 1 µM ([1]; Mus musculus, RAW-Blue, single agent 1 μM, read-out: % Inhibition Alone) of 44.6%, an inhibition at 3 µM ([1]; Mus musculus, RAW-Blue, single agent 3 μM, read-out: % Inhibition Alone) of 40.5 ± 9.5% and an inhibition at 10 µM ([1]; Mus musculus, RAW-Blue, single agent 10 μM, read-out: % Inhibition Alone) of 59.3 ± 3.7%. For the same molecule, the inhibition at 30 µM ([1]; Mus musculus, RAW-Blue, single agent 30 μM, CBD value flagged * possibly cytotoxicity, read-out: % Inhibition Alone) was 78 ± 7.9%, the “concentrations with marked effects on SEAP levels” value ([1]; applied alone) was no less than 1 µM and the “% Inhibition Alone” value ([1]; single agent 30 μM, CBD value flagged * possibly cytotoxicity) was “*78 ± 7.9%”. The “toxicity (as determined by MTT assay)” value (RAW-Blue™ cells) was “appeared to induce toxicity”, the “reduction of LPS-induced expression of IL-1α vs untreated, LPS-stimulated controls (FIG. 3A)” value (IL-1α gene expression) was “did not significantly reduce” and the “% decrease in IL1α expression” value (IL-1α gene expression; single agent 0.1 μM) was 13%. The “% decrease in IL1α expression” value (IL-1α gene expression; single agent 1 μM) was 4%, the “% decrease in IL1α expression” value (IL-1α gene expression; single agent 5 μM) was 10% and the “% decrease in IL1α expression” value (IL-1α gene expression; single agent 10 μM) was 21%. The “% Inhibition Alone, IL-1α gene expression” value (IL-1α gene expression; single agent 0.1 μM) was 0%, the “% Inhibition Alone, IL-1α gene expression” value (IL-1α gene expression; single agent 0.3 μM) was 3.2 ± 0.2% and the “% Inhibition Alone, IL-1α gene expression” value (IL-1α gene expression; single agent 1 μM) was 34.5 ± 6.2%. The “% Inhibition Alone, IL-1α gene expression” value (IL-1α gene expression; single agent 3 μM) was 55.5 ± 4.7% and 55.5 ± 47%, the “% decrease in IL-1α gene expression” value (IL-1α gene expression; [3]) was 0% and the “% decrease in IL-1α gene expression” value (IL-1α gene expression; [4]) was 42%. The “concentrations with marked anti-inflammatory effects” value (IL-1α gene expression; applied alone, IL-1α and IL-1β gene expression) was no less than 1 µM.
